In patent publication US20060130266A1, “Dermal drug delivery system” (priority 2004, published 2006):
Marks after values point to notes of the source that are not given here.

Assays:
[1] = octanol/water; cited from earlier work
[2] = In vitro skin permeation, Franz cell infinite dose study (optimisation studies with MP, BP, CF); settings: BP; for EF enhancement factor: flux vs untreated skin
[3] = Table 4b, brush A 450 Nm^−2, 20 s, 80 rpm
[4] = Table 4b, brush A 450 Nm^−2, 45 s, 80 rpm
[5] = Table 4b, brush A 750 Nm^−2, 45 s, 80 rpm
[6] = Table 4b, brush A 1200 Nm^−2, 45 s, 80 rpm
[7] = Table 5c, EtoH/PBS (50% ethanol donor solution)
[8] = Table 5c, brush A 450 Nm^−2, 45 s
[9] = Table 5c, brush B 300 Nm^−2, 15 s
[10] = Table 5c, brush B 300 Nm^−2, 25 s
[11] = Table 5c, brush B 450 Nm^−2, 15 s

## CCCCOC(=O)c1ccc(O)cc1 [BP, Butyl paraben]
[1]
  Log P (o/w): 3.57
[2]; [3]
  JS flux: 6.60 ± 0.49* 10^−3 μg/cm/s
  KP permeability coefficient: 3.30 ± 0.25 10^−5 cm/s
  TL lag time: 37.10 ± 2.26 min
  EF enhancement factor: 1.74
[2]; [4]
  JS flux: 7.50 ± 0.75* 10^−3 μg/cm/s
  KP permeability coefficient: 3.75 ± 0.37 10^−5 cm/s
  TL lag time: 25.22 ± 2.17 min
  EF enhancement factor: 1.97
[2]; [5]
  JS flux: 8.26 ± 0.89* 10^−3 μg/cm/s
  KP permeability coefficient: 4.13 ± 0.45 10^−5 cm/s
  TL lag time: 26.34 ± 1.48 min
  EF enhancement factor: 2.17
[2]; [6]
  JS flux: 8.62 ± 1.05* 10^−3 μg/cm/s
  KP permeability coefficient: 4.31 ± 0.52 10^−5 cm/s
  TL lag time: 26.39 ± 1.30 min
  EF enhancement factor: 2.26
[2]; Table 4b, delipidised skin
  JS flux: 15.95 ± 1.55* 10^−3 μg/cm/s
  KP permeability coefficient: 7.98 ± 0.78 10^−5 cm/s
  TL lag time: 18.58 ± 3 min
  EF enhancement factor: 4.20
[2]; Table 4b, untreated skin
  KP permeability coefficient: 1.90 ± 0.23 10^−5 cm/s
  TL lag time: 33.47 ± 8.79 min
[2]; [7]
  KP permeability coefficient: 9.24 ± 0.80 10^−5 cm/s
  TL lag time: 26.43 ± 5.05 min
[2]; Table 5c, EtoH/PBS
  EF enhancement factor: 3.75
[2]; [8]
  JS flux: 8.38 ± 1.09* 10^−4 μg/cm/s
  KP permeability coefficient: 4.19 ± 0.54 10^−5 cm/s
  TL lag time: 24.51 ± 5.50 min
  EF enhancement factor: 1.69
[2]; [9]
  JS flux: 6.16 ± 0.89* 10^−4 μg/cm/s
  KP permeability coefficient: 3.08 ± 0.44 10^−5 cm/s
  TL lag time: 22.65 ± 3.22 min
  EF enhancement factor: 1.25
[2]; [10]
  JS flux: 10.47 ± 0.96* 10^−4 μg/cm/s
  KP permeability coefficient: 5.23 ± 0.48 10^−5 cm/s
  TL lag time: 23.06 ± 2.19 min
  EF enhancement factor: 2.12
[2]; [11]
  KP permeability coefficient: 6.34 ± 1.03 10^−5 cm/s
  TL lag time: 14.55 ± 5.18 min
  EF enhancement factor: 2.57
[2]; Table 5c, delipidised skin
  KP permeability coefficient: 10.27 ± 1.43 10^−5 cm/s
  TL lag time: 8.17 ± 5.41 min
  EF enhancement factor: 4.16
[2]; Table 5c, tapestripped skin
  KP permeability coefficient: 7.80 ± 1.84 10^−5 cm/s
  TL lag time: 34.78 ± 4.44 min
  EF enhancement factor: 3.16
[2]; Table 5c, untreated skin
  KP permeability coefficient: 2.47 ± 0.11 10^−5 cm/s
  TL lag time: 35.84 ± 1.98 min
